According to patent publication US7847127B2, “Process for preparation of atovaquone and novel intermediates thereof” (IPCA Laboratories Limited, priority 2007, dated 2010):

Assay: Stability of the physical form on storage under ambient conditions
Assay type: physicochemical
Settings: stable = remains substantially in the same physical form for at least a month at 20° C./60% RH
Description: The term “stable,” as used herein, refers to the tendency to remain substantially in the same physical form for at least a month, preferably at least 6 months, more preferably at least a year, still more preferably at least 2 years, when stored under ambient conditions (20° C./60% RH) without external treatment. Substantially the same physical form in this context means that at least 50%, preferably at least 80% and more preferably at least 90% of the crystalline form remains.

## O=C1C(O)=C([C@H]2CC[C@H](c3ccc(Cl)cc3)CC2)C(=O)c2ccccc21 [Form IPCA-ATO, trans-2-[4-(4-chlorophenyl)cyclohexyl]-3-hydroxy-1,4-naphthoquinone]
  Stability of the crystalline form: stable
